US20130143929A1, “FUNGICIDAL IMIDAZOLES” (EI DU PONT DE NEMOURS AND COMPANY, priority 2010, published 2013)
Marks after values point to notes of the source that are not given here.

Columns and labels:
Assay type in all cases: in vivo
[1] = test system: Blumeria graminis f. sp. tritici (also known as Erysiphe graminis f. sp. tritici, the causal agent of wheat powdery mildew); test: Test D: wheat powdery mildew, preventive spray on wheat seedlings, visual disease rating; conditions: for Test D rating (100 = 100% disease control, 0 = no disease control relative to the controls): wheat powdery mildew, preventive spray on wheat seedlings
How it was run: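 Compound suspended in acetone/water (50/50) with 250 ppm Trem 014 and sprayed to run-off on wheat seedlings (200 ppm ≈ 800 g/ha), then inoculated next day with spore dust. Disease rated visually after 8 days at 20 °C as % control relative to untreated plants (0-100).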

[2] = test system: Septoria tritici (the causal agent of wheat leaf blotch); test: Test B: wheat leaf blotch, preventive spray on wheat seedlings, visual disease rating; conditions: for Test B rating (100 = 100% disease control, 0 = no disease control relative to the controls): wheat leaf blotch, preventive spray on wheat seedlings
How it was run: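 Wheat seedlings sprayed to run-off with compound suspension (acetone/water with 250 ppm Trem 014; 200 ppm ≈ 800 g/ha, some at 40 ppm), inoculated next day with Septoria tritici spores. 48 h saturated humidity at 24 °C, then 19 days at 20 °C; visual rating, 100 = full control.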

[3] = test system: Puccinia recondite f. sp. tritici (the causal agent of wheat leaf rust); test: Test A: wheat leaf rust, preventive spray on wheat seedlings, visual disease rating; conditions: for Test A rating (100 = 100% disease control, 0 = no disease control relative to the controls): wheat leaf rust, preventive spray on wheat seedlings
How it was run: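 Wheat seedlings were sprayed to run-off with compound suspended in acetone/water containing 250 ppm Trem 014 (200 ppm ≈ 800 g/ha; some at 40 ppm). Puccinia recondite spores were inoculated the next day. Plants were held 24 h saturated at 20° C, then 7 days at 20° C, and disease control was rated visually on a 0–100 scale against controls.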

[4] = test system: Botrytis cinerea (the causal agent of tomato Botrytis); test: Test C: tomato Botrytis, preventive spray on tomato seedlings, visual disease rating; conditions: for Test C rating (100 = 100% disease control, 0 = no disease control relative to the controls): tomato Botrytis, preventive spray on tomato seedlings
How it was run: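 Test suspension (acetone/water with 250 ppm Trem 014; 200 ppm equivalent to 800 g/ha) sprayed to run-off on tomato seedlings; B. cinerea spores inoculated next day. After 48 h saturated humidity at 20° C then 3 days at 24° C, disease rated visually as % control relative to untreated controls (0–100).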

[5] = asterisk: 40 ppm test suspension
[6] = no asterisk (standard test suspension concentration, not 40 ppm)
[7] = asterisk: 40 ppm test suspension, 100 = 100% disease control, 0 = no control

Row | SMILES | Test D rating (100 = 100% disease control, 0 = no disease control relative to the controls) [1, 5] | Test B rating (100 = 100% disease control, 0 = no disease control relative to the controls) [2, 5] | Test A rating (100 = 100% disease control, 0 = no disease control relative to the controls) [3, 5] | Test C rating (100 = 100% disease control, 0 = no disease control relative to the controls) [4, 5] | other results
1 | COc1ccc(C(O)c2c(Cl)nc(C)n2-c2ccc(F)cc2Br)c(F)c1 (centres unmarked) [compound 314] | 47* % | 100* % | 100* % | 99* % | 
2 | Cc1nc(Br)c(C(O)c2c(F)cc(Cl)cc2F)n1-c1ccc(F)cc1Br (centres unmarked) [compound 308] | 93* % | 100* % | 100* % | 100* % | 
3 | COc1ccc(C(O)c2c(Br)nc(C)n2-c2c(F)cc(F)cc2Br)c(Cl)c1 (centres unmarked) [compound 351] | 95* % | 100* % | 100* % | 90* % | 
4 | Cc1ncc(C(O)c2ccc(Cl)cc2)n1-c1ccc(Cl)cc1Cl (racemic) [compound 242] | 0* % | 50* % | 94* % | 29* % | 
5 | Cc1nc(Br)c(C(O)c2ccc(Cl)cc2Cl)n1-c1c(F)cccc1F (centres unmarked) [compound 202] | 82* % | 100* % | 98* % | 100* % | 
6 | Cc1nc(Br)c(C(O)c2ccc(Cl)cc2Cl)n1-c1c(F)cccc1Cl (centres unmarked) [compound 201] | 89* % | 100* % | 100* % | 99* % | 
7 | Cc1nc(Cl)c(C(O)c2ccc(Cl)cc2Cl)n1-c1c(F)cc(Cl)cc1F (centres unmarked) [compound 114] | 0* % | 100* % | 99* % | 0* % | 
8 | Cc1nc(Br)c(C(O)c2c(F)cccc2F)n1-c1c(F)cccc1F (centres unmarked) [compound 106] | 43* % | 100* % | 99* % | 91* % | 
9 | OC(c1ccc(F)cc1Cl)c1c(Br)nc(C2CC2)n1-c1c(F)cccc1Br (centres unmarked) [compound 150] |  |  |  |  | Test D rating (100 = 100% disease control, 0 = no disease control relative to the controls) [1, 6]: 27%; Test B rating (100 = 100% disease control, 0 = no disease control relative to the controls) [2, 6]: 100%; Test A rating (100 = 100% disease control, 0 = no disease control relative to the controls) [3, 6]: 85%; Test C rating (100 = 100% disease control, 0 = no disease control relative to the controls) [4, 6]: 0%
10 | COc1cc(F)c(-n2c(C)nc(Br)c2C(O)c2ccc(F)cc2C)c(F)c1 (centres unmarked) [compound 391] |  |  |  |  | Test D rating (% disease control, wheat powdery mildew) [1, 7]: 0* %; Test B rating (% disease control, wheat leaf blotch) [2, 7]: 100* %; Test A rating (% disease control, wheat leaf rust) [3, 7]: 99* %; Test C rating (% disease control, tomato Botrytis) [4, 7]: 0* %
11 | Cc1nc(Cl)c(C(O)c2ccc(F)cc2F)n1-c1c(F)cc(Cl)cc1F (centres unmarked) [compound 127] | 0* % | 100* % | 100* % | 73* % | 
